Tests used:
[1] = tested on: MDA-MB-231 breast cancer cell line; assay: Crystal Violet antiproliferative assay, MDA-MB-231; format: cell-based; conditions: 48 h of incubation, mean ± S.D. of three separate experiments
Procedure: (§1) The in vitro antiproliferative activity of the newly synthesized conjugates 4a–n and 7a–d was evaluated against breast cancer MDA-MB-231 and MCF-7 cell lines, following the Crystal Violet (CV) cell cytotoxicity assay. Doxorubicin was included in this assay as a positive control, and Sunitinib was used as a reference drug.
(§2) Breast cancer cell lines MDA-MB-231 and MCF-7 cells were obtained from VACSERA Tissue Culture Unit. The cells were propagated in DMEM supplemented with 10% heat-inactivated fetal bovine serum, 1% L-glutamine (2.5 mM), HEPES (4-(2-hydroxyethyl)-1-piperazineethanesulfonic acid) buffer (10 mM) and 50 µg/mL gentamycin. All cells were maintained at 37 °C in a humidified atmosphere with 5% CO2 and were sub-cultured two times a week. Cytotoxicity was determined following the Crystal Violet (CV) cell cytotoxicity assay.
(§3) Test samples were dissolved in DMSO and kept at a stock concentration of 100 mM. Exponentially growing cells were collected using 0.25% Trypsin-EDTA and seeding was done at a density of 3000 cells/well in 96-well plates. After 24 h, the monolayer cultured cells were washed with sterile phosphate buffered saline (0.01 M pH 7.2) and simultaneously the cells were treated with […] from 10 different dilutions of the test compounds as well as Doxorubicin was […] Control wells were exposed to the same concentration of vehicle, DMSO (1%) used in the highest concentration of the test samples. Cell viability was >99% compared to untreated cells. The number of the surviving cells was determined by staining the cells with crystal violet followed by cell lysing using 33% glacial acetic acid. The absorbance was measured at 490 nm using ELISA reader (Thermo Fisher Scientific, Waltham, MA, USA) after gentle shaking. The absorbance values from untreated cells were considered as 100% proliferation.
(§4) The number of viable cells was determined using ELISA reader as previously mentioned and the percentage of viability was calculated as […] where ODt is the mean optical density of wells treated with the test sample and ODc is the mean optical density of untreated cells. The 50% inhibitory concentration (IC50) was estimated from graphic plots of the dose response curve for each conc. using GraphPad Prism software, Version 5 (San Diego, CA, USA). The data presented are the mean of at least three separate experiments.

[2] = tested on: breast epithelial cell line (MCF-10A); assay: Crystal violet cytotoxicity towards nontumorigenic MCF-10A; format: cell-based, human; conditions: for IC50: Homo sapiens, MCF-10A, nontumorigenic cells, mean ± S.D. of three separate experiments; for Selectivity Index (MCF-10A/MDA-MB-231): ratio of IC50 MCF-10A to IC50 MDA-MB-231
Procedure: (§5) The cytotoxic activity of the active conjugates towards MDA-MB-231 cells (4c–e, 4g, 4l–n and 7a–d) was examined against nontumorigenic human lung fibroblast cell line (WI-38) and human breast epithelial cell line (MCF-10A) to investigate the potential safety of the newly prepared conjugates towards the normal cells. […] The results were expressed as IC50 values, and selectivity index was calculated (Table 2).
(§6) The cytotoxic activity of the active conjugates towards nontumorigenic human lung fibroblast cell line (WI-38) and human breast epithelial cell line (MCF-10A) was determined using Crystal violet (CV) cell cytotoxicity assay according to the previously published procedures.

[3] = tested on: lung fibroblast cell line (WI-38); assay: Crystal violet cytotoxicity towards nontumorigenic WI-38; format: cell-based; conditions: Homo sapiens, nontumorigenic cells, mean ± S.D. of three separate experiments
Procedure: as §5, §6

[4] = tested on: MCF-7 breast cancer cell line; assay: Crystal Violet antiproliferative assay, MCF-7; format: cell-based; conditions: Homo sapiens, MCF7, 48 h, Crystal Violet assay; 48 h of incubation; mean ± S.D. of three separate experiments
Procedure: as §1, §2, §3, §4

| Compound | IC50 ([1]; Homo sapiens, MDA-MB-231, 48 h) | melting point | IC50 [2] | Selectivity Index (MCF-10A/MDA-MB-231) [2] | IC50 [3] | IC50 [4] | IC50 [1] |
| --- | --- | --- | --- | --- | --- | --- | --- |
| Cc1ccc(N=C2SC(=C3C(=O)Nc4c(C)cc(C)cc43)C(=O)N2c2ccc(C)cc2)cc1 [Compound 4n, 5-(5,7-Dimethyl-2-oxoindolin-3-ylidene)-3-(p-tolyl)-2-(p-tolylimino)thiazolidin-4-one] | 36.3 ± 2.9 µM | > 300 °C | 154 ± 5.2 µM | 4.2 | 218 ± 13.5 µM | 23.7 ± 1.9 µM | – |
| O=C1Nc2ccc(Cl)cc2C1=C1SC(=Nc2ccccc2)N(c2ccccc2)C1=O [Compound 4c, 5-(5-Chloro-2-oxoindolin-3-ylidene)-3-phenyl-2-(phenylimino)thiazolidin-4-one] | 24.1 ± 2.1 µM | – | 113 ± 5.9 µM | 4.7 | 87.2 ± 5.2 µM | 29.2 ± 2.5 µM | – |
| Cc1ccc(N=C2SC(=C3C(=O)Nc4ccc(F)cc43)C(=O)N2c2ccc(C)cc2)cc1 [Compound 4i, 5-(5-Fluoro-2-oxoindolin-3-ylidene)-3-(p-tolyl)-2-(p-tolylimino)thiazolidin-4-one] | 152 ± 11.5 µM | > 300 °C | – | – | – | 105 ± 7.5 µM | – |
| Cc1ccc2c(c1)C(=C1SC(=Nc3ccccc3)N(c3ccccc3)C1=O)C(=O)N2 [Compound 4f, 5-(5-Methyl-2-oxoindolin-3-ylidene)-3-phenyl-2-(phenylimino)thiazolidin-4-one] | 60.9 ± 4.2 µM | – | – | – | – | 22.8 ± 2 µM | – |
| O=C1Nc2ccccc2C1=C1SC(=Nc2ccccc2)N(c2ccccc2)C1=O [Compound 4a, 5-(2-Oxoindolin-3-ylidene)-3-phenyl-2-(phenylimino)thiazolidin-4-one] | > 200 µM | – | – | – | – | > 200 µM | – |
| COc1ccc2c(c1)C(=C1SC(=Nc3ccc(C)cc3)N(c3ccc(C)cc3)C1=O)C(=O)N2 [Compound 4l, 5-(5-Methoxy-2-oxoindolin-3-ylidene)-3-(p-tolyl)-2-(p-tolylimino)thiazolidin-4-one] | 47.1 ± 4.1 µM | > 300 °C | 157 ± 6.8 µM | 3.3 | 176 ± 11.3 µM | 53.5 ± 3.6 µM | 47.2 ± 4.1 µM |
| COc1cccc2c1C(=O)c1c(O)c3c(c(O)c1C2=O)C[C@@](O)(C(=O)CO)C[C@@H]3O[C@H]1C[C@H](N)[C@H](O)[C@H](C)O1 [Dox., Doxorubicin, reference compound] | 4.7 ± 0.4 µM | – | – | – | – | 3.8 ± 0.4 µM | – |
| Cc1ccc2c(c1)C(=c1sc3nc4ccccc4n3c1=O)C(=O)N2 [Compound 7c, 2-(5-Methyl-2-oxoindolin-3-ylidene)benzo[4,5]imidazo[2,1-b]thiazol-3(2H)-one] | 40.3 ± 2.5 µM | > 300 °C | 242 ± 11.5 µM | 6.0 | 192 ± 10.8 µM | 48.2 ± 2.7 µM | – |
| COc1ccc2c(c1)C(=C1SC(=Nc3ccccc3)N(c3ccccc3)C1=O)C(=O)N2 [Compound 4e, 5-(5-Methoxy-2-oxoindolin-3-ylidene)-3-phenyl-2-(phenylimino)thiazolidin-4-one] | 42.6 ± 3.4 µM | – | 89.6 ± 5.1 µM | 2.1 | 193 ± 10.6 µM | 52.9 ± 5 µM | – |
| CCN(CC)CCNC(=O)c1c(C)[nH]c(/C=C2\C(=O)Nc3ccc(F)cc32)c1C [Sunitinib, reference compound] | 5.5 ± 0.5 µM | – | – | – | – | 3.4 ± 0.3 µM | – |
| Cc1ccc(N=C2SC(=C3C(=O)Nc4ccc(Cl)cc43)C(=O)N2c2ccc(C)cc2)cc1 [Compound 4j, 5-(5-Chloro-2-oxoindolin-3-ylidene)-3-(p-tolyl)-2-(p-tolylimino)thiazolidin-4-one] | 50.8 ± 3.5 µM | > 300 °C | – | – | – | > 200 µM | – |
| Cc1ccc(N=C2SC(=C3C(=O)Nc4ccccc43)C(=O)N2c2ccc(C)cc2)cc1 [Compound 4h, 5-(2-Oxoindolin-3-ylidene)-3-(p-tolyl)-2-(p-tolylimino)thiazolidin-4-one] | 51.7 ± 2.1 µM | > 300 °C | – | – | – | 56 ± 3.7 µM | – |
| O=C1Nc2ccc(Cl)cc2C1=c1sc2nc3ccccc3n2c1=O [Compound 7a, 2-(5-Chloro-2-oxoindolin-3-ylidene)benzo[4,5]imidazo[2,1-b]thiazol-3(2H)-one] | 47.2 ± 3.8 µM | > 300 °C | 234 ± 9.6 µM | 5.0 | 353 ± 17.1 µM | 127 ± 9.9 µM | – |
| Cc1cc(C)c2c(c1)C(=C1SC(=Nc3ccccc3)N(c3ccccc3)C1=O)C(=O)N2 [Compound 4g, 5-(5,7-Dimethyl-2-oxoindolin-3-ylidene)-3-phenyl-2-(phenylimino)thiazolidin-4-one] | 43.6 ± 3.1 µM | > 300 °C | 142 ± 7.9 µM | 3.25 | 120 ± 7.8 µM | – | – |
| Cc1ccc(N=C2SC(=C3C(=O)Nc4ccc(Br)cc43)C(=O)N2c2ccc(C)cc2)cc1 [Compound 4k, 5-(5-Bromo-2-oxoindolin-3-ylidene)-3-(p-tolyl)-2-(p-tolylimino)thiazolidin-4-one] | > 200 µM | > 300 °C | – | – | – | > 200 µM | – |
| O=C1Nc2ccc(Br)cc2C1=C1SC(=Nc2ccccc2)N(c2ccccc2)C1=O [Compound 4d, 5-(5-Bromo-2-oxoindolin-3-ylidene)-3-phenyl-2-(phenylimino)thiazolidin-4-one] | 15.7 ± 0.9 µM | – | 80.7 ± 3.4 µM | 5.1 | 65.5 ± 4.2 µM | 17.1 ± 1.1 µM | – |
| O=C1Nc2ccc(F)cc2C1=C1SC(=Nc2ccccc2)N(c2ccccc2)C1=O [Compound 4b, 5-(5-Fluoro-2-oxoindolin-3-ylidene)-3-phenyl-2-(phenylimino)thiazolidin-4-one] | 108 ± 8.2 µM | > 300 °C | – | – | – | 58.5 ± 3.2 µM | – |
| Cc1cc(C)c2c(c1)C(=c1sc3nc4ccccc4n3c1=O)C(=O)N2 [Compound 7d, 2-(5,7-Dimethyl-2-oxoindolin-3-ylidene)benzo[4,5]imidazo[2,1-b]thiazol-3(2H)-one] | 23.5 ± 1 µM | > 300 °C | 250 ± 9.8 µM | 10.7 | 234 ± 15.4 µM | 27.6 ± 2.4 µM | – |
